Measured values from patent publication US7169789B2 (Kirin Beer Kabushiki Kaisha, priority 1999, dated 2007).
pIC50: −log10 of the molar value.

Columns and labels:
[1] = tested on: A375 human melanoma cells; experiment: Karyomorphosis test; format: cell-based; conditions: test compound 10 μM and 1 μM, 48 hr, nuclei stained with propidium iodide
Method: A375 human melanoma cells (2×10^4) (obtained from Japanese Foundation for Cancer Research) were incolulated on a culture slide (manufactured by Falcon) and were cultured at 37° C. After the elapse of 5 hr from the initiation of the cultivation, the test compound was added to 10 μM and 1 μM, and the cultivation was continued for additional 48 hr. After the fixation of cells, 50 μg/ml propidium iodide solution containing ribonuclease (200 μg/ml) was added to stain nuclei. The stained nuclei were observed under a fluorescent microscope to analyze the nuclei for abnormality of karyomorphosis.

[2] = tested on: activation of MAPK within vascular endothelial cells induced by VEGF stimulation; experiment: Inhibitory activity against activation of MAPK within vascular endothelial cells induced by VEGF stimulation; format: cell-based; conditions: human funicular venous vascular endothelial cells, VEGF 50 ng/ml, phosphorylated MAPK by immunoblotting
Method: Measurement of Inhibitory Activity Against Activation of MAPK Within Vascular Endothelial Cells Induced by VEGF Stimulation
Human funicular venous vascular endothelial cells (purchased from Chronetics) were cultured in an EGM-2 medium (purchased from Chronetics) within an incubator containing 5% carbon dioxide until 50 to 70% confluent, and the culture was inoculated into wells, containing the same medium, in a 96-well flat-bottom plate in an amount of 1.5×10^5 per well. After cultivation at 37° C. overnight, the medium was replaced by an EBM-2 medium containing 0.5% fetal calf serum (purchased from Chronetics), followed by cultivation for 24 hr. A solution of the test compound in dimethyl sulfoxide was added to each well, and the cultivation was continued at 37° C. for additional one hr. A human recombinant vascular endothelial growth factor (hereinafter abbreviated to “VEGF”) was added to a final concentration of 50 ng/ml, and the stimulation of cells was carried out at 37° C. for 8 min. The medium was removed, the cells were washed with phosphate buffered saline (pH 7.4), and 10 μl of a solubilization buffer (Tris buffered saline (pH 7.4) containing 1% Triton X100, 2 mM sodium orthovanadylate, and 1 mM disodium ethylenediaminetetraacetate) was then added thereto. The mixture was shaken at 4° C. for one hr to solubilize the cells. An equal amount of Tris buffered saline containing 1% sodium laurylsulfate was added to and thoroughly mixed with the solution. This solution (2 μl) was adsorbed on a PVDF filter by dot blotting, and this filter was subjected to immunoblotting with anti-tyrosine phosphorylated MAPK antibody (purchased from Daiichi Pure Chemicals).
The level of phosphorylated MAPK was quantitatively determined with a densitometer, and the percentage phosphorylated MAPK in the presence of the test compound was determined by presuming the level of phosphorylated MAPK with the addition of VEGF in the absence of the test compound to be 100% and the level of phosphorylated MAPK in the absence of the test compound and VEGF to be 0%. The test compound concentration (IC50) necessary for inhibiting 50% of the activation of MAPK was calculated based on the percentage of phosphorylated MAPK.

human KDR = target: T1, human KDR (Homo sapiens, UniProt P35968); experiment: Inhibitory activity against KDR phosphorylation by ELISA; format: cell-based; conditions: NIH 3T3 cells transfected with human KDR, VEGF 100 ng/ml
T1 construct: expressed in transfected cells; host or cells: NIH 3T3 cells (Sawano A et al., Cell Growth & Differentiation 7, 213-221 (1996))
T1 sequence (P35968 20-1356): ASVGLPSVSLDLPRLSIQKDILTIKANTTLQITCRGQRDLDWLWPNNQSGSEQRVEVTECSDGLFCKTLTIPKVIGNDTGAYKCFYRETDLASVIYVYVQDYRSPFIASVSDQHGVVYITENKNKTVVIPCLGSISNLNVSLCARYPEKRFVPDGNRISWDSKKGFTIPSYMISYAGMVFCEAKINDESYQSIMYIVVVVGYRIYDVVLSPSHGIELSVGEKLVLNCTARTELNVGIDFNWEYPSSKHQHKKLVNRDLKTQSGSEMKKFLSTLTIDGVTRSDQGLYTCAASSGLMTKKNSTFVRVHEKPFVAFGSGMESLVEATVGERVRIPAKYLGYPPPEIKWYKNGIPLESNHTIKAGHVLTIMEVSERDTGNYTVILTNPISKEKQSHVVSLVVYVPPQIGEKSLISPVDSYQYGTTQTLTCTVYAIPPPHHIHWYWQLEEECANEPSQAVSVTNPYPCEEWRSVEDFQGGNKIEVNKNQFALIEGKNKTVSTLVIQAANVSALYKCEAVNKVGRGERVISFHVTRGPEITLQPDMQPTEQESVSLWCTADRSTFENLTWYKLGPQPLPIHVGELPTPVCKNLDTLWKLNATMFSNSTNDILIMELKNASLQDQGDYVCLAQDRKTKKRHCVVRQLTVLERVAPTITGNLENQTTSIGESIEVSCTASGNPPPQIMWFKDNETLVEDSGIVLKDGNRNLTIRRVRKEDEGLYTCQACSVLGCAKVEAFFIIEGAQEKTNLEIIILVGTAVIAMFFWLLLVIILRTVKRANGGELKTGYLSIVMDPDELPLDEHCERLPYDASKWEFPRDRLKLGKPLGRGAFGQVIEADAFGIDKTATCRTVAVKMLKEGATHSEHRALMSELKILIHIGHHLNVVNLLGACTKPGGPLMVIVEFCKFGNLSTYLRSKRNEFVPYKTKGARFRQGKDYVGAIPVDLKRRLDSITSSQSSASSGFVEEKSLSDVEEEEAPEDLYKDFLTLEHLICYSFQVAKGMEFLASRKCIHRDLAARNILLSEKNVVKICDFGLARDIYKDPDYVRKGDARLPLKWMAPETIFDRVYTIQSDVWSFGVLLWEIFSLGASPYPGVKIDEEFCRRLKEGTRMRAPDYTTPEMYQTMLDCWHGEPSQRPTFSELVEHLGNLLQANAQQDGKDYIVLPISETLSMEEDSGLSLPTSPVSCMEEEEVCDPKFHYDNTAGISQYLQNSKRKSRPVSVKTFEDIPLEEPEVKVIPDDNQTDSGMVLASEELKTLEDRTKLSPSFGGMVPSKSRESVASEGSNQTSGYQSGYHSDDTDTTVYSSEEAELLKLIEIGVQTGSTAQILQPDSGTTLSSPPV

Human glioma cells GL07 = experiment: Antitumor effect on human glioma cells (GL07) transplanted into nude mice; format: in vivo; conditions: Mus musculus, Glioma cell, 216 h, GL07, oral, 20 mg/kg once a day for 9 days, read-out: TGIR, % (tumor growth inhibition rate)
Outline: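 GL07 xenografts in nude mice, grouped (n=4) at ~100 mm^3 tumor volume. Test compound 20 mg/kg p.o. or i.p. once daily for 9 days; vehicle controls. TGIR = (1−Tx/Cx)×100 from tumor volumes normalized to day-of-start volume = 1.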

pIC50 ([2]; Endothelial cell)	pIC50 [2]	pIC50 (human KDR)	SMILES	Change in morphosis [1]	inhibition in vivo at 20 mg/kg (Human glioma cells GL07) [%]
8.23			COc1ccccc1NC(=O)Nc1cc(C)c(Oc2ccnc3cc(OCCN4CCOCC4)c(OC)cc23)cc1C [Example 53, N-(4-{[6-Methoxy-7-(2-morpholinoethoxy)-4-quinolyl]oxy}-2,5-dimethylphenyl)-N′-(2-methoxyphenyl)urea]	(−) (the change in karyomorphosis of cells did not take place at 10 μM)	
8.43			COc1cc2nccc(Oc3ccc(NC(=O)Nc4cccc(C)n4)c(C)c3C)c2cc1OC [Example 35, N-{4-[(6,7-Dimethoxy-4-quinolyl)oxy]-2,3-dimethylphenyl}-N′-(6-methyl-2-pyridyl)urea]	(−) (the change in karyomorphosis of cells did not take place at 10 μM)	
	8.14		COc1cc2nccc(Oc3ccc(NC(=O)Nc4ccc(Cl)cc4C)c(C)c3C)c2cc1OC [Example 32, N-(4-Chloro-2-methylphenyl)-N′-{4-[(6,7-dimethoxy-4-guinolyl)oxy]-2,3-dimethylphenyl}urea]	(−) (the change in karyomorphosis of cells did not take place at 10 μM)	
			COc1cc2nccc(Oc3cc(C)c(NC(=O)Nc4ccc(Br)c(C)n4)cc3C)c2cc1OC [Example 44, N-(5-Bromo-6-methyl-2-pyridyl)-N′-{4-[(6,7-dimethoxy-4-quinolyl)oxy]-2,5-dimethylphenyl}urea]	(−) (the change in karyomorphosis of cells did not take place at 10 μM)	
	8.60		COc1cc2nccc(Oc3ccc(NC(=O)Nc4ccccc4C)c(C)c3C)c2cc1OC [Example 31, N-{4-[(6,7-Dimethoxy-4-guinolyl)oxy]-2,3-dimethylphenyl}-N′-(2-methylphenyl)urea]	(−) (the change in karyomorphosis of cells did not take place at 10 μM)	
8.47			COc1cc2nccc(Oc3ccc(NC(=O)Nc4cccc(C)n4)c(Cl)c3)c2cc1OC [Example 21, N-{2-Chloro-4-[(6,7-dimethoxy-4-quinolyl)oxy]phenyl}-N′-(6-methyl-2-pyridyl)urea]	(−) (the change in karyomorphosis of cells did not take place at 10 μM)	
8.31			COc1cc2nccc(Oc3cc(C)c(NC(=O)Nc4cccc(F)c4OC)cc3C)c2cc1OC [Example 41, N-{4-[(6,7-Dimethoxy-4-quinolyl)oxy]-2,5-dimethylphenyl}-N′-(3-fluoro-2-methoxyphenyl)urea]	(−) (the change in karyomorphosis of cells did not take place at 10 μM)	
	8.07		COc1cc2nccc(Oc3ccc(NC(=O)Nc4ccc(C)cn4)c(Cl)c3)c2cc1OC [Example 20, N-{2-Chloro-4-[(6,7-dimethoxy-4-guinolyl)oxy]phenyl}-N′-(5-methyl-2-pyridyl)urea]	(−) (the change in karyomorphosis of cells did not take place at 10 μM)	
			CCCNC(=O)Nc1cc(C)c(Oc2ccnc3cc(OC)c(OC)cc23)cc1C [Example 38, N-{4-[(6,7-Dimethoxy-4-quinolyl)oxy]-2,5-dimethylphenyl}-N′-propylurea]	(−) (the change in karyomorphosis of cells did not take place at 10 μM)	
	8.77		COc1ccccc1NC(=O)Nc1ccc(Oc2ccnc3cc(OC)c(OC)cc23)c(C)c1C [Example 30, N-{4-[(6,7-Dimethoxy-4-guinolyl)oxy]-2,3-dimethylphenyl}-N′-(2-methoxyphenyl)urea]	(−) (the change in karyomorphosis of cells did not take place at 10 μM)	
	8.29		COCCOc1cc2nccc(Oc3cc(C)c(NC(=O)Nc4ccc(F)cc4F)cc3C)c2cc1OC [Example 58]	(−) (the change in karyomorphosis of cells did not take place at 10 μM)	
			COc1cc2ncnc(Oc3ccc(NC(=O)Nc4ccc(F)cc4F)c(Cl)c3)c2cc1OC [Example 61, N-{2-Chloro-4-[(6,7-dimethoxy-4-quinazolinyl)oxy]phenyl}-N′-(2,4-difluorophenyl)urea]	(−) (the change in karyomorphosis of cells did not take place at 10 μM)	
8.37			COc1ccc(NC(=O)Nc2cc(C)c(Oc3ccnc4cc(OC)c(OC)cc34)cc2C)cc1 [Example 46, N-{4-[(6,7-Dimethoxy-4-quinolyl)oxy]-2,5-dimethylphenyl}-N′-(4-methoxyphenyl)urea]	(−) (the change in karyomorphosis of cells did not take place at 10 μM)	
8.70			COc1ccc(NC(=O)Nc2cc(C)c(Oc3ccnc4cc(OC)c(OC)cc34)cc2C)c(OC)n1 [Example 45, N-(2,6-Dimethoxy-3-pyridyl)-N′-{4-[(6,7-dimethoxy-4-quinolyl)oxy]-2,5-dimethylphenyl}urea]	(−) (the change in karyomorphosis of cells did not take place at 10 μM)	
			COc1ccccc1NC(=O)Nc1ccc(Oc2ccnc3cc(OCc4ccccc4)c(OC)cc23)c(C)c1C [Example 60, N-(4-{[7-(Benzyloxy)-6-methoxy-4-quinolyl]oxy}-2,3-dimethylphenyl)-N′-(2-methoxyphenyl)-urea]	(−) (the change in karyomorphosis of cells did not take place at 10 μM)	
6.46		7.20	CCC(C)NC(=O)Nc1ccc(Oc2ncnc3cc(OC)c(OC)cc23)cc1 (stereo not shown) [Example 67, N-(sec-Butyl)-N′-{4-[(6,7-dimethoxy-4-quinazolinyl)oxy]phenyl}urea]		30
< 6.00		6.08	COc1cc2ncnc(Oc3ccc(NC(=O)N(C)c4ccccn4)c(Cl)c3)c2cc1OC [Example 83]		31
7.85		7.43	COc1cc2ncnc(Oc3ccc(NC(=O)NCc4ccc(F)cc4F)c(F)c3)c2cc1OC [Example 93, N-(2,4-Difluorobenzyl)-N′-{4-[(6,7-dimethoxy-4-quinazolinyl)oxy]-2-fluorophenyl}urea]		29
8.39		8.47	CCCCCNC(=O)Nc1ccc(Oc2ncnc3cc(OC)c(OC)cc23)cc1Cl [Example 78, N-{2-Chloro-4-[(6,7-dimethoxy-4-quinazolinyl)oxy]phenyl}-N′-pentylurea]		21
7.15		8.22	CCCCNC(=O)Nc1ccc(Oc2ncnc3cc(OC)c(OC)cc23)cc1Cl [Example 77, N-Butyl-N′-{2-chloro-4-[(6,7-dimethoxy-4-quinazolinyl)oxy]phenyl}urea]		26
8.28		7.89	COc1cc2ncnc(Oc3ccc(NC(=O)Nc4ccc(F)cc4)cc3C)c2cc1OC [Example 100, N-{4-[(6,7-Dimethoxy-4-quinazolinyl)oxy)-3-methylphenyl}-N′-(4-fluorophenyl)urea]		36
			COc1cc2nccc(Oc3cc(C)c(NC(=O)Nc4ccc(Cl)cc4C)cc3C)c2cc1OC [Example 39, N-(4-chloro-2-methylphenyl)-N′-{4-[(6,7-dimethoxy-4-quinolyl)oxy]-2,5-dimethylphenyl}urea]	(−) (the change in karyomorphosis of cells did not take place at 10 μM)	
			COc1cc2nccc(Oc3ccc(NC(=O)Nc4ccc(Br)c(C)n4)c(Cl)c3)c2cc1OC [Example 15, N-(5-Bromo-6-methyl-2-pyridyl)-N′-{2-chloro-4-[(6,7-dimethoxy-4-quinolyl)oxy]phenyl}urea]	(−) (the change in karyomorphosis of cells did not take place at 10 μM)	
9.15		9.30	COc1cc2ncnc(Oc3ccc(NC(=O)Nc4ccc(F)cc4)c(Cl)c3)c2cc1OC [Example 85, N-{2-Chloro-4-[(6,7-dimethoxy-4-quinazolinyl)oxy]phenyl}-N′-(4-fluorophenyl)urea]		26
